# Data: ChEMBL document CHEMBL2331417, “Kinetic and anion inhibition studies of a β-carbonic anhydrase (FbiCA 1) from the C4 plant Flaveria bidentis” (Bioorg Med Chem Lett, 2013)
# What was measured:
# [1] = Inhibition of Helicobacter pylori beta-carbonic anhydrase preincubated for 15 mins by stopped flow CO2 hydration assay
# [2] = Inhibition of Flaveria bidentis beta-carbonic anhydrase-1 preincubated for 15 mins by stopped flow CO2 hydration assay
SMILES,Ki [1] [µM],Ki [2] [µM]
N=C=S [SODIUM ISOTHIOCYANATE],680,830
CCN(CC)C(=S)S [DITIOCARB SODIUM],7.4,8
[O-][Cl+3]([O-])([O-])O [SODIUM PERCHLORATE],6500,> 200000
O=[As](O)(O)c1ccccc1 [PHENYLARSONIC ACID],,6
O=BOB(O)OB(O)OB=O [SODIUM TETRABORATE],680,860
O=S([O-])O.[Na+] [SODIUM BISULFITE],630,55300
O=S(=O)(O)OOS(=O)(=O)O [SODIUM PERSULFATE],930,870
S [SODIUM HYDROSULFIDE],580,860
O=[Te](=O)(O)O [SODIUM TELLURATE],450,900
OB(O)c1ccccc1 [PHENYLBORONIC ACID],73,8
N=C=[Se] [SODIUM ISOSELENOCYANATE],970,880
NS(N)(=O)=O [SULFAMIDE],72,4
O=S(=O)(O)ONOS(=O)(=O)O [SODIUM IMINODISULFATE],700,50900
[N-]=[N+]=[N-] [SODIUM AZIDE],800,460
O=P(O)(O)OP(=O)(O)O [SODIUM PYROPHOSPHATE],750,830
F[B-](F)(F)F.[Na+] [SODIUM TETRAFLUOROBORATE],> 200000,> 200000
O=C([O-])[O-].[Na+].[Na+] [SODIUM CARBONATE],420,840
NS(=O)(=O)O [SULFAMATE],94,5
O=[N+]([O-])[O-].[Na+] [SODIUM NITRATE],780,780
[Br-].[Na+] [SODIUM BROMIDE],380,670
[F-].[Na+] [SODIUM FLUORIDE],670,710
S=C(S)S [SODIUM CARBONOTRITHIOATE],210,60
[Cl-].[Na+] [SODIUM CHLORIDE],560,740
O=NO [SODIUM NITRITE],670,570
O=C([O-])O.[Na+] [SODIUM BICARBONATE],,660
O=S(=O)([O-])[O-].[Na+].[Na+] [SODIUM SULFATE ANHYDROUS],570,620
O=[Se](=O)(O)O [SODIUM SELENATE],650,24500
[I-].[Na+] [SODIUM IODIDE],630,710
